From ChEMBL document CHEMBL3044807, “Synthesis and biological evaluation of new ozonides with improved plant growth regulatory activity” (2009)

The compounds below were run on Cucumis sativus (assay: Phytotoxic activity against Cucumis sativus (cucumber) assessed as weight of aerial parts at 5.0 x 10^-4 mol/l measured 15 days after seed sowing under greenhouse trials (reference value: 47.0 mg)). Conditions: not given.
Format: functional

SMILES | Activity [mg]
CC12OOC(O1)C1OC2(C)C2CCCCC1C2=O (mixture of isomers) | 32.9
CC[C@@]12C=C[C@H](O1)[C@H]1CCCC[C@H]2C1=O | 14.5
CC12OC(C3OOC1O3)C1CCCCC2C1=O (mixture of isomers) | 17
CC1CCC23OOC(C)(O2)C2OC3(C1)C(C)C(=O)C2C (mixture of isomers) | 29.7

Each compound was assayed on Ipomoea grandifolia (assay: Phytotoxic activity against Ipomoea grandifolia assessed as aerial part growth inhibition at 5.0 x 10^-4 mol/l measured 21 days after seed sowing under greenhouse trials (reference value: 0.0%)). Conditions: 504 h.
Format: functional

SMILES | inhibition at 500 µM [%]
C[C@@H]1CC[C@H]2[C@@H](C)C(=O)O[C@@H]3O[C@@]4(C)CC[C@@H]1[C@]32OO4 [ARTEMISININ] | 93.6

Each compound was assayed on Ipomoea grandifolia (assay: Phytotoxic activity against Ipomoea grandifolia assessed as root growth inhibition at 5.0 x 10^-4 mol/l measured 21 days after seed sowing under greenhouse trials (reference value: 0.0%)). Conditions: 504 h.
Format: functional

SMILES | inhibition at 500 µM [%]
C[C@@H]1CC[C@H]2[C@@H](C)C(=O)O[C@@H]3O[C@@]4(C)CC[C@@H]1[C@]32OO4 [ARTEMISININ] | 95

The compounds below were run on Sorghum bicolor (assay: Phytotoxic activity against Sorghum bicolor seedlings assessed as radicle length at 5x10'-4 mol/l at 28 +/-1 degC after 48 hr by acid-washed sand based radicle elongation assay (reference value: 5.1 cm)). Conditions: not given.
Format: functional

SMILES | Activity [cm]
CC12OOC(O1)C1OC2(C)C2CCCCC1C2=O (mixture of isomers) | 1
CC[C@@]12C=C[C@H](O1)[C@H]1CCCC[C@H]2C1=O | 1.8
CC12OC(C3OOC1O3)C1CCCCC2C1=O (mixture of isomers) | 1.5
CC1CCC23OOC(C)(O2)C2OC3(C1)C(C)C(=O)C2C (mixture of isomers) | 1.4

Each compound was assayed on Sorghum bicolor (assay: Phytotoxic activity against Sorghum bicolor assessed as aerial part growth inhibition at 5.0 x 10^-4 mol/l measured 15 days after seed sowing under greenhouse trials (reference value: 0.0%)). Conditions: 360 h.
Format: functional

SMILES | inhibition at 500 µM [%]
CC12OOC(O1)C1OC2(C)C2CCCCC1C2=O (mixture of isomers) | 41.8
CC[C@@]12C=C[C@H](O1)[C@H]1CCCC[C@H]2C1=O | 48.8
CC12OC(C3OOC1O3)C1CCCCC2C1=O (mixture of isomers) | 20
CC1CCC23OOC(C)(O2)C2OC3(C1)C(C)C(=O)C2C (mixture of isomers) | 6.8

These compounds were tested on Urochloa decumbens (assay: Phytotoxic activity against Urochloa decumbens assessed as weight of aerial parts at 5.0 x 10^-4 mol/l measured 21 days after seed sowing under greenhouse trials (reference value: 22.0 mg)). Conditions: not given.
Format: functional

SMILES | Activity [mg]
C[C@@H]1CC[C@H]2[C@@H](C)C(=O)O[C@@H]3O[C@@]4(C)CC[C@@H]1[C@]32OO4 [ARTEMISININ] | 2.9

Each compound was assayed on Ipomoea grandifolia (assay: Phytotoxic activity against Ipomoea grandifolia assessed as weight of aerial parts at 5.0 x 10^-4 mol/l measured 21 days after seed sowing under greenhouse trials (reference value: 17.8 mg)). Conditions: not given.
Format: functional

SMILES | Activity [mg]
C[C@@H]1CC[C@H]2[C@@H](C)C(=O)O[C@@H]3O[C@@]4(C)CC[C@@H]1[C@]32OO4 [ARTEMISININ] | 1.2

What follows are compounds tested on Cucumis sativus (assay: Phytotoxic activity against Cucumis sativus (cucumber) assessed as aerial part growth inhibition at 5.0 x 10^-4 mol/l measured 15 days after seed sowing under greenhouse trials (reference value: 0.0%)). Conditions: 360 h.
Format: functional

SMILES | inhibition at 500 µM [%]
CC12OOC(O1)C1OC2(C)C2CCCCC1C2=O (mixture of isomers) | 29.9
CC[C@@]12C=C[C@H](O1)[C@H]1CCCC[C@H]2C1=O | 69.2
CC12OC(C3OOC1O3)C1CCCCC2C1=O (mixture of isomers) | 63.9
CC1CCC23OOC(C)(O2)C2OC3(C1)C(C)C(=O)C2C (mixture of isomers) | 36.9

Each compound was assayed on Sorghum bicolor (assay: Phytotoxic activity against Sorghum bicolor seedlings assessed as germination at 5x10'-4 mol/l at 28 +/-1 degC after 48 hr by acid-washed sand based radicle elongation assay (reference value: 100%)). Conditions: not given.
Format: functional

SMILES | germination % at 500 µM [%]
CC12OOC(O1)C1OC2(C)C2CCCCC1C2=O (mixture of isomers) | 100
CC[C@@]12C=C[C@H](O1)[C@H]1CCCC[C@H]2C1=O | 100
CC12OC(C3OOC1O3)C1CCCCC2C1=O (mixture of isomers) | 96
CC1CCC23OOC(C)(O2)C2OC3(C1)C(C)C(=O)C2C (mixture of isomers) | 96

Each compound was assayed on Sorghum bicolor (assay: Phytotoxic activity against Sorghum bicolor assessed as weight of aerial parts at 5.0 x 10^-4 mol/l measured 15 days after seed sowing under greenhouse trials (reference value: 19.0 mg)). Conditions: not given.
Format: functional

SMILES | Activity [mg]
CC12OOC(O1)C1OC2(C)C2CCCCC1C2=O (mixture of isomers) | 11.1
CC[C@@]12C=C[C@H](O1)[C@H]1CCCC[C@H]2C1=O | 9.7
CC12OC(C3OOC1O3)C1CCCCC2C1=O (mixture of isomers) | 15.4
CC1CCC23OOC(C)(O2)C2OC3(C1)C(C)C(=O)C2C (mixture of isomers) | 17.7

These compounds were tested on Urochloa decumbens (assay: Phytotoxic activity against Urochloa decumbens assessed as weight of root at 5.0 x 10^-4 mol/l measured 21 days after seed sowing under greenhouse trials (reference value: 21.2 mg)). Conditions: not given.
Format: functional

SMILES | Activity [mg]
C[C@@H]1CC[C@H]2[C@@H](C)C(=O)O[C@@H]3O[C@@]4(C)CC[C@@H]1[C@]32OO4 [ARTEMISININ] | 3.1

The compounds below were run on Cucumis sativus (assay: Phytotoxic activity against Cucumis sativus (cucumber) assessed as root growth inhibition at 5.0 x 10^-4 mol/l measured 15 days after seed sowing under greenhouse trials (reference value: 0.0%)). Conditions: 360 h.
Format: functional

SMILES | inhibition at 500 µM [%]
CC12OOC(O1)C1OC2(C)C2CCCCC1C2=O (mixture of isomers) | 57.4
CC[C@@]12C=C[C@H](O1)[C@H]1CCCC[C@H]2C1=O | 49.2
CC12OC(C3OOC1O3)C1CCCCC2C1=O (mixture of isomers) | 65.9
CC1CCC23OOC(C)(O2)C2OC3(C1)C(C)C(=O)C2C (mixture of isomers) | 50.8

The compounds below were run on Cucumis sativus (assay: Phytotoxic activity against Cucumis sativus (cucumber) seedlings assessed as radicle length at 5x10'-4 mol/l at 28 +/-1 degC after 48 hr by acid-washed sand based radicle elongation assay (reference value: 4.8 cm)). Conditions: not given.
Format: functional

SMILES | Activity [cm]
CC12OOC(O1)C1OC2(C)C2CCCCC1C2=O (mixture of isomers) | 0.8
CC[C@@]12C=C[C@H](O1)[C@H]1CCCC[C@H]2C1=O | 1.3
CC12OC(C3OOC1O3)C1CCCCC2C1=O (mixture of isomers) | 2.3
CC1CCC23OOC(C)(O2)C2OC3(C1)C(C)C(=O)C2C (mixture of isomers) | 2.9

What follows are compounds tested on Ipomoea grandifolia (assay: Phytotoxic activity against Ipomoea grandifolia assessed as weight of root at 5.0 x 10^-4 mol/l measured 21 days after seed sowing under greenhouse trials (reference value: 18.4 mg)). Conditions: not given.
Format: functional

SMILES | Activity [mg]
C[C@@H]1CC[C@H]2[C@@H](C)C(=O)O[C@@H]3O[C@@]4(C)CC[C@@H]1[C@]32OO4 [ARTEMISININ] | 0.7

The compounds below were run on Sorghum bicolor (assay: Phytotoxic activity against Sorghum bicolor assessed as root growth inhibition at 5.0 x 10^-4 mol/l measured 15 days after seed sowing under greenhouse trials (reference value: 0.0%)). Conditions: 360 h.
Format: functional

SMILES | inhibition at 500 µM [%]
CC12OOC(O1)C1OC2(C)C2CCCCC1C2=O (mixture of isomers) | 34.6
CC[C@@]12C=C[C@H](O1)[C@H]1CCCC[C@H]2C1=O | 49
CC12OC(C3OOC1O3)C1CCCCC2C1=O (mixture of isomers) | 11.8
CC1CCC23OOC(C)(O2)C2OC3(C1)C(C)C(=O)C2C (mixture of isomers) | 9.1

What follows are compounds tested on Cucumis sativus (assay: Phytotoxic activity against Cucumis sativus (cucumber) assessed as weight of roots at 5.0 x 10^-4 mol/l measured 15 days after seed sowing under greenhouse trials (reference value: 31.0 mg)). Conditions: not given.
Format: functional

SMILES | Activity [mg]
CC12OOC(O1)C1OC2(C)C2CCCCC1C2=O (mixture of isomers) | 13.2
CC[C@@]12C=C[C@H](O1)[C@H]1CCCC[C@H]2C1=O | 15.8
CC12OC(C3OOC1O3)C1CCCCC2C1=O (mixture of isomers) | 10.6
CC1CCC23OOC(C)(O2)C2OC3(C1)C(C)C(=O)C2C (mixture of isomers) | 15.3

The compounds below were run on Cucumis sativus (assay: Phytotoxic activity against Cucumis sativus (cucumber) seedlings assessed as inhibition of radicle growth at 5x10'-4 mol/l at 28 +/-1 degC after 48 hr by acid-washed sand based radicle elongation assay (reference value: 0.0%)). Conditions: not given.
Format: functional

SMILES | inhibition at 500 µM [%]
CC12OOC(O1)C1OC2(C)C2CCCCC1C2=O (mixture of isomers) | 84.2
CC[C@@]12C=C[C@H](O1)[C@H]1CCCC[C@H]2C1=O | 73.2
CC12OC(C3OOC1O3)C1CCCCC2C1=O (mixture of isomers) | 52
CC1CCC23OOC(C)(O2)C2OC3(C1)C(C)C(=O)C2C (mixture of isomers) | 39.9

What follows are compounds tested on Urochloa decumbens (assay: Phytotoxic activity against Urochloa decumbens assessed as aerial part growth inhibition at 5.0 x 10^-4 mol/l measured 21 days after seed sowing under greenhouse trials (reference value: 0.0%)). Conditions: 504 h.
Format: functional

SMILES | inhibition at 500 µM [%]
C[C@@H]1CC[C@H]2[C@@H](C)C(=O)O[C@@H]3O[C@@]4(C)CC[C@@H]1[C@]32OO4 [ARTEMISININ] | 93.6

These compounds were tested on Sorghum bicolor (assay: Phytotoxic activity against Sorghum bicolor assessed as weight of roots at 5.0 x 10^-4 mol/l measured 15 days after seed sowing under greenhouse trials (reference value: 14.0 mg)). Conditions: not given.
Format: functional

SMILES | Activity [mg]
CC12OOC(O1)C1OC2(C)C2CCCCC1C2=O (mixture of isomers) | 9.2
CC[C@@]12C=C[C@H](O1)[C@H]1CCCC[C@H]2C1=O | 7.7
CC12OC(C3OOC1O3)C1CCCCC2C1=O (mixture of isomers) | 12.7
CC1CCC23OOC(C)(O2)C2OC3(C1)C(C)C(=O)C2C (mixture of isomers) | 12.7

What follows are compounds tested on Urochloa decumbens (assay: Phytotoxic activity against Urochloa decumbens assessed as root growth inhibition at 5.0 x 10^-4 mol/l measured 21 days after seed sowing under greenhouse trials (reference value: 0.0%)). Conditions: 504 h.
Format: functional

SMILES | inhibition at 500 µM [%]
C[C@@H]1CC[C@H]2[C@@H](C)C(=O)O[C@@H]3O[C@@]4(C)CC[C@@H]1[C@]32OO4 [ARTEMISININ] | 95

The compounds below were run on Cucumis sativus (assay: Phytotoxic activity against Cucumis sativus (cucumber) seedlings assessed as germination at 5x10'-4 mol/l at 28 +/-1 degC after 48 hr by acid-washed sand based radicle elongation assay (reference value: 100%)). Conditions: not given.
Format: functional

SMILES | germination % at 500 µM [%]
CC12OOC(O1)C1OC2(C)C2CCCCC1C2=O (mixture of isomers) | 100
CC[C@@]12C=C[C@H](O1)[C@H]1CCCC[C@H]2C1=O | 100
CC12OC(C3OOC1O3)C1CCCCC2C1=O (mixture of isomers) | 70
CC1CCC23OOC(C)(O2)C2OC3(C1)C(C)C(=O)C2C (mixture of isomers) | 93

These compounds were tested on Sorghum bicolor (assay: Phytotoxic activity against Sorghum bicolor seedlings assessed as inhibition of radicle growth at 5x10'-4 mol/l at 28 +/-1 degC after 48 hr by acid-washed sand based radicle elongation assay (reference value: 0.0%)). Conditions: not given.
Format: functional

SMILES | inhibition at 500 µM [%]
CC12OOC(O1)C1OC2(C)C2CCCCC1C2=O (mixture of isomers) | 80.2
CC[C@@]12C=C[C@H](O1)[C@H]1CCCC[C@H]2C1=O | 64.2
CC12OC(C3OOC1O3)C1CCCCC2C1=O (mixture of isomers) | 71.5
CC1CCC23OOC(C)(O2)C2OC3(C1)C(C)C(=O)C2C (mixture of isomers) | 72.1
